Laboratory results reported in patent US20250100972A1, “COMPOUND, RUBBER BLEND CONTAINING THE COMPOUND, VEHICLE TIRE COMPRISING THE RUBBER BLEND IN AT LEAST ONE COMPONENT, PROCESS FOR PRODUCING THE COMPOUND, AND USE OF THE COMPOUND AS AN AGEING PROTECTANT AND/OR ANTIOZONANT AND/OR DYE” (Continental Reifen Deutschland GmbH, priority 2021, published 2025).

Legend:
[1] = basic structure compared with aniline; cited from earlier work
[2] = Measurement of oxidation induction time (OIT) by DSC; type: physicochemical; settings: with liquid polyisoprene LIR-50, isothermal 180° C., switch from N2 to O2 atmosphere 50 mL/min, DSC peak; measuring accuracy ± 10 min
Experimental: The compound of formula II) was investigated under laboratory conditions for its potential protective effect as an aging stabilizer by measurement of the oxidation induction time.
To this end the compounds of formula II) and 6-PPD in each case together with a polymer (liquid synthetic polyisoprene (IR), LIR-50, Kuraray, weight average molecular weight distribution Mw=54 000 g/mol, glass transition temperature Tg=−63° C.) were heated at constant temperature (180° C.) until onset of oxidation (start temperature 35° C., heating to 170° C. at a heating rate of 20 K/min (kelvin per minute), heating to 180° C. at a heating rate of 1 K/min; purge gas: nitrogen (N2), volume flow 50 mL/min).
The specimen was isothermally maintained at 180° C. under an N2 atmosphere and the atmosphere was then switched to an O2 atmosphere (volume flow 50 mL/min).
Oxidation was determined via a peak using DSC (differential scanning calorimetry).
The time in minutes to oxidation was measured.

acridinone
Genotoxicity / mutagenicity according to safety data sheet [1]: neither genotoxic nor mutagenic

CC(C)CC(C)Nc1ccc(Nc2ccccc2)cc1 (stereo not drawn) [6-PPD, N-(1,3-dimethylbutyl)-N′-phenyl-p-phenylenediamine]
Time to oxidation (oxidation induction time) [2]: 116 ± 10 min

CC(C)CC(C)Nc1ccc2[nH]c3ccccc3c(=O)c2c1 (stereo not drawn) [Compound of formula II), 2-(1,3-dimethylbutylamino)-acridine-9(10H)-one]
Time to oxidation (oxidation induction time) [2]: 259 ± 10 min
